From ChEMBL document CHEMBL4477239 (Bioorg Med Chem, 2016)

What was measured:
in vitro = settings: human, Caco-2
Description: Apparent permeability from apical to basolateral side in Caco2 cells at 1 to 10 uM incubated for 90 mins by LC-MS/MS analysis

[1] = target: Insulin-like growth factor 1 receptor (Homo sapiens, UniProt P08069); test: Inhibition of human IGF1R
Cytochrome P450 2D6 [2] = target: T1, Cytochrome P450 2D6 (Homo sapiens, UniProt P10635); test: Time-dependent inhibition of CYP2D6 in human liver microsomes at 10 uM using paroxetine as […] preincubated with compound followed by NADPH addition by LC-MS/MS analysis; assay type: ADME
Ephrin type-A receptor 2 = Ephrin type-A receptor 2 (Homo sapiens, UniProt P29317); test: Inhibition of human EPHA2
[3] = target: Hepatocyte growth factor receptor (Homo sapiens, UniProt P08581)
Description: Inhibition of c-Met kinase (unknown origin) assessed as decrease in phosphorylation of TK substrate-biotin peptide preincubated for 5 to 10 mins followed by ATP addition measured after 30 mins by HTRF assay

[4] = target: Tyrosine-protein kinase ABL1 (Homo sapiens, UniProt P00519); test: Inhibition of human ABL
[5] = Efflux ratio of permeability from basolateral to apical side over apical to basolateral side in Caco2 cells at 1 to 10 uM incubated for 90 mins by LC-MS/MS analysis; assay type: ADME, cell-based; settings: human, Caco-2
[6] = target: Mast/stem cell growth factor receptor Kit (Homo sapiens, UniProt P10721); test: Inhibition of human c-Kit
[7] = target: ALK tyrosine kinase receptor (Homo sapiens, UniProt Q9UM73); test: Inhibition of human ALK
[8] = target: Receptor tyrosine-protein kinase erbB-4 (Homo sapiens, UniProt Q15303); test: Inhibition of human ERBB4
[9] = target: Fibroblast growth factor receptor 1 (Homo sapiens, UniProt P11362); test: Inhibition of human FGFR1
Ephrin type-B receptor 2 = Ephrin type-B receptor 2 (Homo sapiens, UniProt P29323); test: Inhibition of human EPHB2
[10] = target: Tyrosine-protein kinase receptor UFO (Homo sapiens, UniProt P30530); test: Inhibition of human AXL
[11] = target: Epidermal growth factor receptor (Homo sapiens, UniProt P00533, T790M); test: Inhibition of human EGFR T790M mutant
Cytochrome P450 1A2 [12] = target: T2, Cytochrome P450 1A2 (Homo sapiens, UniProt P05177); test: Time-dependent inhibition of CYP1A2 in human liver microsomes at 10 uM using furafylline as […] preincubated with compound followed by NADPH addition by LC-MS/MS analysis; assay type: ADME
T2 sequence (P05177 whole entry): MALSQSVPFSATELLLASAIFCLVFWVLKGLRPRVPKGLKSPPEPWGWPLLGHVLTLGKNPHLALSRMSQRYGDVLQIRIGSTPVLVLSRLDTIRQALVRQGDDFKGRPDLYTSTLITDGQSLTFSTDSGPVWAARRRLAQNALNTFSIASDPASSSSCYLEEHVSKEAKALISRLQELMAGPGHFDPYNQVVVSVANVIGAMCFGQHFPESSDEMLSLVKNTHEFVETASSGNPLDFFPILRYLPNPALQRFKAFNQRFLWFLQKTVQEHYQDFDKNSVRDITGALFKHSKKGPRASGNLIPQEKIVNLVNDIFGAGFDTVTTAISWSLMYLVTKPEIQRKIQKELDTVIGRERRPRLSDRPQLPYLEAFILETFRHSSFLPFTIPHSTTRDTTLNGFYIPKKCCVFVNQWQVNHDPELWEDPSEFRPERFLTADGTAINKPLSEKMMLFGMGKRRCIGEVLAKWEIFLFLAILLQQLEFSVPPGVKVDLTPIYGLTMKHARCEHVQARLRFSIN

NCI-H1993 = test: Cytotoxicity against human NCI-H1993 cells assessed as growth inhibition after 72 hrs by CCK-8 assay; settings: NCI-H1993, 72 h
[13] = target: Platelet-derived growth factor receptor beta (Homo sapiens, UniProt P09619); test: Inhibition of human PDGFRbeta
[14] = target: Vascular endothelial growth factor receptor 2 (Homo sapiens, UniProt P35968); test: Inhibition of human VEGFR2
[15] = Intrinsic clearance in human liver microsomes assessed per mg of protein at 1 uM preincubated for 5 mins followed by NADPH addition measured after 5 to 30 mins by LC-MS/MS analysis; assay type: ADME, Microsome; settings: read-out: CLH
Cytochrome P450 2C9 = Cytochrome P450 2C9 (Homo sapiens, UniProt P11712); test: Inhibition of CYP2C9 in human liver microsomes at 10 uM using sulfaphenazole as […] preincubated for 5 mins followed by NADPH addition measured after 20 mins by LC-MS/MS analysis; assay type: ADME
[16] = target: Vascular endothelial growth factor receptor 1 (Homo sapiens, UniProt P17948); test: Inhibition of human FLT1
Cytochrome P450 3A4 [17] = target: T3, Cytochrome P450 3A4 (Homo sapiens, UniProt P08684); test: Time-dependent inhibition of CYP3A4 in human liver microsomes at 10 uM using troleandomycin as […] preincubated with compound followed by NADPH addition by LC-MS/MS analysis; assay type: ADME
[18] = target: Epidermal growth factor receptor (Homo sapiens, UniProt P00533); test: Inhibition of human EGFR
[19] = target: Platelet-derived growth factor receptor alpha (Homo sapiens, UniProt P16234); test: Inhibition of human PDGFRalpha
[20] = target: Macrophage-stimulating protein receptor (Homo sapiens, UniProt Q04912); test: Inhibition of human RON
[21] = Apparent permeability from basolateral to apical side in Caco2 cells at 1 to 10 uM incubated for 90 mins by LC-MS/MS analysis; assay type: ADME, cell-based; settings: human, Caco-2
[22] = Intrinsic clearance in rat liver microsomes assessed per mg of protein at 1 uM preincubated for 5 mins followed by NADPH addition measured after 5 to 30 mins by LC-MS/MS analysis; assay type: ADME, Microsome; settings: read-out: CLH
[23] = target: Proto-oncogene tyrosine-protein kinase Src (Homo sapiens, UniProt P12931); test: Inhibition of human c- SRC
[24] = target: Proto-oncogene tyrosine-protein kinase receptor Ret (Homo sapiens, UniProt P07949); test: Inhibition of human RET
Cytochrome P450 2D6 [25] = target: T1, Cytochrome P450 2D6; test: Inhibition of CYP2D6 in human liver microsomes at 10 uM using quinidine as […] preincubated for 5 mins followed by NADPH addition measured after 20 mins by LC-MS/MS analysis; assay type: ADME
Cytochrome P450 2C19 = Cytochrome P450 2C19 (Homo sapiens, UniProt P33261); test: Inhibition of CYP2C19 in human liver microsomes at 10 uM using tranylcypromine as […] preincubated for 5 mins followed by NADPH addition measured after 20 mins by LC-MS/MS analysis; assay type: ADME
Cytochrome P450 1A2 [26] = target: T2, Cytochrome P450 1A2; test: Inhibition of CYP1A2 in human liver microsomes at 10 uM using naphthoflavone as […] preincubated for 5 mins followed by NADPH addition measured after 20 mins by LC-MS/MS analysis; assay type: ADME
Cytochrome P450 3A4 [27] = target: T3, Cytochrome P450 3A4; test: Inhibition of CYP3A4 in human liver microsomes at 10 uM using ketoconazole as […] preincubated for 5 mins followed by NADPH addition measured after 20 mins by LC-MS/MS analysis; assay type: ADME

Cytochrome P450 2C19, sequence (P33261 whole entry): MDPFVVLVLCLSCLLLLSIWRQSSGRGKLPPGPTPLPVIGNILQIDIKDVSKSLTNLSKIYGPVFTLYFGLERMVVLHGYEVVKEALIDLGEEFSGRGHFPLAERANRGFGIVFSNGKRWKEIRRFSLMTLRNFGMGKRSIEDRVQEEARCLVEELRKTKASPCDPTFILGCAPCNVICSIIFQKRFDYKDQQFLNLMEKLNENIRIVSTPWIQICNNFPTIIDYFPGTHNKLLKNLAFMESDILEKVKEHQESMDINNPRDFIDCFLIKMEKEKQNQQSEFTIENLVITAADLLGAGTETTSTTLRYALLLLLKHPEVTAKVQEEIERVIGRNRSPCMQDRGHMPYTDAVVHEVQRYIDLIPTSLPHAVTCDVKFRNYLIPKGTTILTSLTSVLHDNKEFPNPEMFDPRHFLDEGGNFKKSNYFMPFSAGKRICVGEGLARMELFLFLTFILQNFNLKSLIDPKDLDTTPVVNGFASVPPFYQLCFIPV
T1 sequence (P10635 whole entry): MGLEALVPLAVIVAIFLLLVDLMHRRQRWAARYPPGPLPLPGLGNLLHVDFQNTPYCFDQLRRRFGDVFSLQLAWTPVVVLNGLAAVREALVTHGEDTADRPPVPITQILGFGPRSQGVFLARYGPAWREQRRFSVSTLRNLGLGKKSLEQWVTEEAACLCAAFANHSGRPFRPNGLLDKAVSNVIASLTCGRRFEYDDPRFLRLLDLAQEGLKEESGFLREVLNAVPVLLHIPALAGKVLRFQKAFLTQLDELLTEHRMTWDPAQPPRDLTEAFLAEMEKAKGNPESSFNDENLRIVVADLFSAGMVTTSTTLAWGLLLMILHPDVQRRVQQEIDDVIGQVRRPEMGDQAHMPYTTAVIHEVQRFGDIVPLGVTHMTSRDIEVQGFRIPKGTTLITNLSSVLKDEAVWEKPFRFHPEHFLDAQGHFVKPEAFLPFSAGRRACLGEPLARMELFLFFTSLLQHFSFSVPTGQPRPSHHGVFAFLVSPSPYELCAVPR
Cytochrome P450 2C9, sequence (P11712 whole entry): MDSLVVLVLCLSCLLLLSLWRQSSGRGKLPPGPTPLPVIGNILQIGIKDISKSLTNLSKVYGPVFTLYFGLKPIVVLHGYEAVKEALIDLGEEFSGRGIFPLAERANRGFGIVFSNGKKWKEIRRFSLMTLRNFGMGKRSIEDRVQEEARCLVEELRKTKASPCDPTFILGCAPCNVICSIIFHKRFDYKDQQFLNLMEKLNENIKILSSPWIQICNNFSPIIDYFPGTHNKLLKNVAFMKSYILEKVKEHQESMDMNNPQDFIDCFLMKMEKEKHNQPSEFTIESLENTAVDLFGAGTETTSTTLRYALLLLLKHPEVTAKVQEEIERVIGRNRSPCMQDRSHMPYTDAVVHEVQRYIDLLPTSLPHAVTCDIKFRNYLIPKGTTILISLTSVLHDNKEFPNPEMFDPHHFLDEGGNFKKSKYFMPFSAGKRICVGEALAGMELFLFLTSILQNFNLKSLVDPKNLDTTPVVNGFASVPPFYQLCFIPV
T3 sequence (P08684 whole entry): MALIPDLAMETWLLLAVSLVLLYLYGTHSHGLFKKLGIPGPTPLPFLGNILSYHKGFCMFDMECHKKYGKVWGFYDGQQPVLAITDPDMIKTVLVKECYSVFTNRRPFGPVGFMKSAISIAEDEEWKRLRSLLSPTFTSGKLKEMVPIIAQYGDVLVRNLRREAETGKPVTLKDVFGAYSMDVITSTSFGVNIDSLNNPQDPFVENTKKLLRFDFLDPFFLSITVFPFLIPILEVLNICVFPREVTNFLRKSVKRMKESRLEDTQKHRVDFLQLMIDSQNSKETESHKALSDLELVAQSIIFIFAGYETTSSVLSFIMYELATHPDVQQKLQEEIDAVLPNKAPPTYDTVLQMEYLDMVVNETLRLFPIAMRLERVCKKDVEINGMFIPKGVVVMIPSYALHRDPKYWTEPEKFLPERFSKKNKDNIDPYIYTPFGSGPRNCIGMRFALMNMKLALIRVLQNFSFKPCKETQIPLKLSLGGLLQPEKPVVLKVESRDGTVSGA
Hepatocyte growth factor receptor, sequence (P08581 whole entry): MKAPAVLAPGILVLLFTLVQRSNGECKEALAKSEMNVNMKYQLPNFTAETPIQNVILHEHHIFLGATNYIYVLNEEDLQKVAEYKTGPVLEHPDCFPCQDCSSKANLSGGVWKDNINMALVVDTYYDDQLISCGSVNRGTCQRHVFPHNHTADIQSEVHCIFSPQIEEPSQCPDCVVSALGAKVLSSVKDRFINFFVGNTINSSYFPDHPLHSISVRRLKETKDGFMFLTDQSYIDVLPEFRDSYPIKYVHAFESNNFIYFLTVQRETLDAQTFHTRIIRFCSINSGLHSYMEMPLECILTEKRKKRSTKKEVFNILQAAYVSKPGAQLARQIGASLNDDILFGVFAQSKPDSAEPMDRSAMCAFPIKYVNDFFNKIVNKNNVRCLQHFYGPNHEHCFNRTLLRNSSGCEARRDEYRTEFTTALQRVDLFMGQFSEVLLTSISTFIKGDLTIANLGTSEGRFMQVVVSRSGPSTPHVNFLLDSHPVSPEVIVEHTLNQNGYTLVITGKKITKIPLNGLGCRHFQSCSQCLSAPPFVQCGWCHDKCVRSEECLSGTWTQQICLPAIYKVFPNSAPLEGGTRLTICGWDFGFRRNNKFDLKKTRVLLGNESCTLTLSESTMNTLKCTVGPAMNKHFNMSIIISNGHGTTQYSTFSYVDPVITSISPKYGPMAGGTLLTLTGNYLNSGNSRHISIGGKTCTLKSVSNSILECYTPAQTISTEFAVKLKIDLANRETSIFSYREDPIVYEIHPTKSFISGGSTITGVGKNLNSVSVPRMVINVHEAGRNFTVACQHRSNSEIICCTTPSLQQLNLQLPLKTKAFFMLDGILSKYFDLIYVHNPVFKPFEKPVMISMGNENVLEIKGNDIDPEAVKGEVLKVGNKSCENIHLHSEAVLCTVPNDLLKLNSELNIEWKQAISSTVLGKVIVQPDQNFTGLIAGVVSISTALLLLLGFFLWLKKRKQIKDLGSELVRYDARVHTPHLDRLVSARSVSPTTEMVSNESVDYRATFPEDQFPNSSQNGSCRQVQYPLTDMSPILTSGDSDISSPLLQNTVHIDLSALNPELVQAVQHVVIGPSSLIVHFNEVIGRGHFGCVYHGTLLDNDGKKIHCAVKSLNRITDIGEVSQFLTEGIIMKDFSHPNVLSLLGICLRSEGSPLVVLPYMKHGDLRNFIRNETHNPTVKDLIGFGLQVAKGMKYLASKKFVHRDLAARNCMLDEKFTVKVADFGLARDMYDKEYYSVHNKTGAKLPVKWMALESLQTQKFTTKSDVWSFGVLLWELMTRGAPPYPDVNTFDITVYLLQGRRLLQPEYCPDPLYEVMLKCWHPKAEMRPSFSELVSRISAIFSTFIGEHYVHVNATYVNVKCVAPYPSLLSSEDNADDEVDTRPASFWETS
Epidermal growth factor receptor (Homo sapiens, UniProt P00533, T790M), sequence (P00533 25-1210 T790M limits assumed): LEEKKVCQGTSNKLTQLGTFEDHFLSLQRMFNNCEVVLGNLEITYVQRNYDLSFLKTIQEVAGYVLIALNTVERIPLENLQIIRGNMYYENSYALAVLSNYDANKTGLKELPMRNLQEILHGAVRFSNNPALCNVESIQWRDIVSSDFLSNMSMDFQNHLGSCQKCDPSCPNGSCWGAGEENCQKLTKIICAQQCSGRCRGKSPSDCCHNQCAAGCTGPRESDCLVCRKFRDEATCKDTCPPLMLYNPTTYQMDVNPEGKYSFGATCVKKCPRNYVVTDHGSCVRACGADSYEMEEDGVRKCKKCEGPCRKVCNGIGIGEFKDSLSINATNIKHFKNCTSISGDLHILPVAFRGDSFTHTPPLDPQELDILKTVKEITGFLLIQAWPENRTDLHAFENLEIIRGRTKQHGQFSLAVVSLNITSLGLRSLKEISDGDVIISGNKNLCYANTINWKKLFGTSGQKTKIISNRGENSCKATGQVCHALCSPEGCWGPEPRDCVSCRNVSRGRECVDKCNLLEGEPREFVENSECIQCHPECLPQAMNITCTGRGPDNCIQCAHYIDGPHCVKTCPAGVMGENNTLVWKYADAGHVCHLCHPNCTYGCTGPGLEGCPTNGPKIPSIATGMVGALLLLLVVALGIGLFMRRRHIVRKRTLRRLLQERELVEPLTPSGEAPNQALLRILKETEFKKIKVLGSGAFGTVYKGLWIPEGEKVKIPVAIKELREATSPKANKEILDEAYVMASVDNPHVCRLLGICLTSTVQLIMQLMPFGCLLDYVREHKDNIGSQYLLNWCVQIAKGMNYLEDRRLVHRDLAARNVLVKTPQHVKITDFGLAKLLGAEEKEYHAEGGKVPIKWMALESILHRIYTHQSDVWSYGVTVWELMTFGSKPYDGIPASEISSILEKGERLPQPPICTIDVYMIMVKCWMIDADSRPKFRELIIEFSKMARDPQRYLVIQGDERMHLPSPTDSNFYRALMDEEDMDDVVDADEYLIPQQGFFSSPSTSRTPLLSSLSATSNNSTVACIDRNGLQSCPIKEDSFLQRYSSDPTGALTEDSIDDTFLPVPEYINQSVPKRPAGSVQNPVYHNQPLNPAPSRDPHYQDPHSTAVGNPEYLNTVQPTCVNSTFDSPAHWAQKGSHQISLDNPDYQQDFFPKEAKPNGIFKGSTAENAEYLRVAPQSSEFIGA

Papp A→B at 1.5 h, 10 µM (in vitro) [×10⁻⁶ cm/s] | inhibition (INH) (Cytochrome P450 2D6 [2]) | IC50 [3] [nM] | efflux ratio at 1.5 h [5] | inhibition (INH) (Cytochrome P450 1A2 [12]) | microsomal CLint at 1 µM [15] [µL/min/mg] | inhibition (INH) (Cytochrome P450 2C9) | inhibition (INH) (Cytochrome P450 3A4 [17]) | Papp B→A at 1.5 h [21] [×10⁻⁶ cm/s] | microsomal CLint at 1 µM [22] [µL/min/mg] | SMILES | IC50 (NCI-H1993) [nM] | other results
2.72 | – | – | – | – | – | – | – | – | – | O=C1OC2(c3ccc([O-])cc3Oc3cc([O-])ccc32)c2ccccc21.[Na+].[Na+] | – | –
46.6 | Not Active | 1.45 | 1.04 | Not Active | 8 | Active | Not Active | 48.6 | 49 | C[C@@H](c1cc2cccnc2cc1F)n1cnc2ncc(-c3cnn(C)c3)nc21 | 24.7 | IC50 [1]: > 30000 nM; IC50 (Ephrin type-A receptor 2): > 30000 nM; IC50 [4]: > 30000 nM; IC50 [6]: > 30000 nM; IC50 [7]: > 30000 nM; IC50 [8]: > 30000 nM; IC50 [9]: > 30000 nM; IC50 (Ephrin type-B receptor 2): > 30000 nM; IC50 [10]: > 30000 nM; IC50 [11]: > 30000 nM; IC50 [13]: 26200 nM; IC50 [14]: 20600 nM; IC50 [16]: > 30000 nM; IC50 [18]: > 30000 nM; IC50 [19]: 27600 nM; IC50 [20]: > 30000 nM; IC50 [23]: > 30000 nM; IC50 [24]: > 30000 nM
– | Not Active | 1 | – | Not Active | 2 | Active | Not Active | – | 10 | CC(c1c(F)cc2ncccc2c1F)n1cnc2ncc(-c3cnn(CCO)c3)nc21 (stereo not given) | 83.7 | –
– | Active | 1.3 | – | Active | 51 | Active | Active | – | 275 | CC(c1c(F)cc2ncccc2c1F)n1cnc2ncc(-c3cnc4ccccc4c3)nc21 (stereo not given) | 46.1 | inhibition (INH) (Cytochrome P450 2D6 [25]): Active; inhibition (INH) (Cytochrome P450 2C19): Active
– | – | 2.5 | – | – | – | – | – | – | – | CCC(c1cc2cccnc2cc1F)n1cnc2ncc(-c3ccc(C(N)=O)c(F)c3)nc21 (stereo not given) | 226 | –
– | – | 4.9 | – | – | – | – | – | – | – | Cc1c(C(C)n2cnc3ncc(-c4cnc5ccccc5c4)nc32)ccc2ncccc12 (stereo not given) | 450 | –
– | Not Active | 1 | – | Not Active | 11 | Active | Not Active | – | 63 | CC(c1c(F)cc2ncccc2c1F)n1cnc2ncc(-c3cnn(C)c3)nc21 (stereo not given) | 35.5 | inhibition (INH) (Cytochrome P450 2C19): Active
39.3 | Not Active | 1.6 | 1.02 | Not Active | 9 | Not Active | Not Active | 40.1 | 18 | CC(c1cc2cccnc2cc1F)n1cnc2ncc(-c3cnn(C)c3)nc21 (stereo not given) | 31.3 | inhibition (INH) (Cytochrome P450 2D6 [25]): Not Active; inhibition (INH) (Cytochrome P450 1A2 [26]): Not Active; inhibition (INH) (Cytochrome P450 3A4 [27]): Not Active; inhibition (INH) (Cytochrome P450 2C19): Not Active
39.8 | – | 2.3 | 0.99 | – | 16 | Active | Active | 39.5 | 85 | CNC(=O)c1ccc(-c2cnc3ncn(C(C)c4cc5cccnc5cc4F)c3n2)cc1F (stereo not given) | 32.7 | inhibition (INH) (Cytochrome P450 2D6 [25]): Active; inhibition (INH) (Cytochrome P450 3A4 [27]): Active; inhibition (INH) (Cytochrome P450 2C19): Active
– | Not Active | 4.9 | – | Not Active | 290 | Active | Not Active | – | 179 | COC(=O)c1ccc(-c2cnc3ncn(C(C)c4c(F)cc5ncccc5c4F)c3n2)cc1F (stereo not given) | 29.4 | –
– | – | 1.6 | – | – | – | – | – | – | – | CCC(c1ccc2ncccc2c1F)n1cnc2ncc(-c3ccc(C(N)=O)c(F)c3)nc21 (stereo not given) | 665 | –
– | – | 3.4 | – | – | – | – | – | – | – | CC(c1cc2cccnc2cc1F)n1cnc2ncc(-c3cnc4ccccc4c3)nc21 (stereo not given) | 109 | –
43.7 | – | 1.32 | 1.1 | – | 23 | Active | Not Active | 47.9 | 131 | C[C@@H](c1cc2cccnc2cc1F)n1cnc2ncc(-c3ccc(C(N)=O)c(F)c3)nc21 | 11.8 | inhibition (INH) (Cytochrome P450 3A4 [27]): Active
– | Not Active | 1.6 | – | Not Active | 14 | Active | Not Active | – | 77 | CC(c1c(F)cc2ncccc2c1F)n1cnc2ncc(-c3ccncc3)nc21 (stereo not given) | 162 | inhibition (INH) (Cytochrome P450 3A4 [27]): Active; inhibition (INH) (Cytochrome P450 2C19): Active
– | Not Active | 2.9 | – | Not Active | 73 | Active | Not Active | – | 125 | COC(=O)c1ccc(-c2cnc3ncn(C(C)c4cc5cccnc5cc4F)c3n2)cc1F (stereo not given) | 60.2 | –
82.3 | Not Active | 1.7 | 0.99 | Not Active | 14 | Active | Not Active | 81.4 | 85 | CC(c1cc2cccnc2cc1F)n1cnc2ncc(-c3ccc(C(N)=O)c(F)c3)nc21 (stereo not given) | 19.5 | –
– | – | 134 | – | – | – | – | – | – | – | CC(c1cc(F)c2ncccc2c1)n1cnc2ncc(-c3cnc4ccccc4c3)nc21 (stereo not given) | > 10000 | –
1.46 | – | – | 2.27 | – | – | – | – | 3.3 | – | CC(=O)O[C@H]1C(=O)[C@@]2(C)[C@H]([C@H](OC(=O)c3ccccc3)[C@]3(O)C[C@H](OC(=O)[C@H](O)[C@@H](NC(=O)c4ccccc4)c4ccccc4)C(C)=C1C3(C)C)[C@]1(OC(C)=O)CO[C@@H]1C[C@@H]2O [PACLITAXEL] | – | –
21.5 | – | – | – | – | – | – | – | – | – | CC(C)NCC(O)COc1cccc2ccccc12 (stereo not given) [PROPRANOLOL] | – | –
